Results published in the supplement of paper PMC10307832.

Columns and labels:
Assay in all cases: relative viability (nuclei count vs DMSO), 5 days (fraction); higher = more cells survive
NCI-H1793 = test system: NCI-H1793
Method in brief: (§1)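 Five library-drug doses in √10 steps were combined with a fixed anchor-drug dose, or a single drug was given alone, by pin tool to lung cancer cell lines in 1536-well plates the day after seeding. Nuclei were stained and counted after 5 days. Relative viability is the nuclei count in treated wells over that in vehicle wells, taken as the median of duplicate plates.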

NCI-H1395 = test system: NCI-H1395
Method in brief: as §1

NCI-H1755 = test system: NCI-H1755
Method in brief: as §1

COR-L23 = test system: COR-L23
Method in brief: as §1

COR-L 105 = test system: COR-L 105
Method in brief: as §1

NCI-H650 = test system: NCI-H650
Method in brief: as §1

HCC-15 = test system: HCC-15
Method in brief: as §1

NCI-H2009 = test system: NCI-H2009
Method in brief: as §1

HCC-366 = test system: HCC-366
Method in brief: as §1

NCI-H1792 = test system: NCI-H1792
Method in brief: as §1

PC-14 = test system: PC-14
Method in brief: as §1

NCI-H23 = test system: NCI-H23
Method in brief: as §1

NCI-H1915 = test system: NCI-H1915
Method in brief: as §1

NCI-H358 = test system: NCI-H358
Method in brief: as §1

EMC-BAC-2 = test system: EMC-BAC-2
Method in brief: as §1

201T = test system: 201T
Method in brief: as §1

NCI-H2347 = test system: NCI-H2347
Method in brief: as §1

NCI-H1437 = test system: NCI-H1437
Method in brief: as §1

NCI-H2023 = test system: NCI-H2023
Method in brief: as §1

LC-2-ad = test system: LC-2-ad
Method in brief: as §1

SK-MES-1 = test system: SK-MES-1
Method in brief: as §1

CN1CCN(CCOc2cc(OC3CCOCC3)c3c(Nc4c(Cl)ccc5c4OCO5)ncnc3c2)CC1 [Saracatinib] + C[C@]1(O)C[C@@H](c2nc(-c3ccc4ccc(-c5ccccc5)nc4c3)c3c(N)nccn32)C1 [Linsitinib] (partner 1 µM)
relative viability (NCI-H1793; first compound 0.02 µM): 0.876 | relative viability (NCI-H1793; first compound 0.2 µM): 0.447 | relative viability (NCI-H1793; first compound 0.6325 µM): 0.993 | relative viability (NCI-H1793; first compound 2 µM): 0.783 | relative viability (NCI-H1395; first compound 0.02 µM): 1.08 | relative viability (NCI-H1395; first compound 0.2 µM): 0.995 | relative viability (NCI-H1395; first compound 0.6325 µM): 1.27 | relative viability (NCI-H1395; first compound 2 µM): 0.876 | relative viability (NCI-H1755; first compound 0.02 µM): 1 | relative viability (NCI-H1755; first compound 0.2 µM): 0.707 | relative viability (NCI-H1755; first compound 0.6325 µM): 0.95 | relative viability (NCI-H1755; first compound 2 µM): 0.896 | relative viability (COR-L23; first compound 0.02 µM): 0.86 | relative viability (COR-L23; first compound 0.2 µM): 0.558 | relative viability (COR-L23; first compound 0.6325 µM): 0.789 | relative viability (COR-L23; first compound 2 µM): 0.584 | relative viability (COR-L 105; first compound 0.02 µM): 0.872 | relative viability (COR-L 105; first compound 0.2 µM): 1.02 | relative viability (COR-L 105; first compound 0.6325 µM): 0.63 | relative viability (COR-L 105; first compound 2 µM): 0.58 | relative viability (NCI-H650; first compound 0.02 µM): 0.94 | relative viability (NCI-H650; first compound 0.2 µM): 0.885 | relative viability (NCI-H650; first compound 0.6325 µM): 0.838 | relative viability (NCI-H650; first compound 2 µM): 0.98 | relative viability (HCC-15; first compound 0.02 µM): 0.911 | relative viability (HCC-15; first compound 0.2 µM): 0.84 | relative viability (HCC-15; first compound 0.6325 µM): 0.86 | relative viability (HCC-15; first compound 2 µM): 0.726 | relative viability (NCI-H2009; first compound 0.02 µM): 1.19 | relative viability (NCI-H2009; first compound 0.2 µM): 1.04 | relative viability (NCI-H2009; first compound 0.6325 µM): 1.15 | relative viability (NCI-H2009; first compound 2 µM): 1.04 | relative viability (HCC-366; first compound 0.02 µM): 0.607 | relative viability (HCC-366; first compound 0.6325 µM): 0.283 | relative viability (HCC-366; first compound 2 µM): 0.13 | relative viability (NCI-H1792; first compound 0.02 µM): 0.533 | relative viability (NCI-H1792; first compound 0.2 µM): 0.374 | relative viability (NCI-H1792; first compound 0.6325 µM): 0.647 | relative viability (NCI-H1792; first compound 2 µM): 0.384 | relative viability (PC-14; first compound 0.02 µM): 0.952 | relative viability (PC-14; first compound 0.2 µM): 0.708 | relative viability (PC-14; first compound 0.6325 µM): 0.304 | relative viability (PC-14; first compound 2 µM): 0.166 | relative viability (NCI-H23; first compound 0.02 µM): 0.58 | relative viability (NCI-H23; first compound 0.6325 µM): 0.558 | relative viability (NCI-H23; first compound 2 µM): 0.466 | relative viability (NCI-H1915; first compound 0.02 µM): 1.1 | relative viability (NCI-H1915; first compound 0.2 µM): 1.03 | relative viability (NCI-H1915; first compound 0.6325 µM): 1.07 | relative viability (NCI-H1915; first compound 2 µM): 1.07 | relative viability (NCI-H358; first compound 0.02 µM): 0.813 | relative viability (NCI-H358; first compound 0.2 µM): 0.51 | relative viability (NCI-H358; first compound 0.6325 µM): 0.403 | relative viability (NCI-H358; first compound 2 µM): 0.279 | relative viability (EMC-BAC-2; first compound 0.02 µM): 0.813 | relative viability (EMC-BAC-2; first compound 0.2 µM): 0.775 | relative viability (EMC-BAC-2; first compound 0.6325 µM): 0.642 | relative viability (EMC-BAC-2; first compound 2 µM): 0.497 | relative viability (201T; first compound 0.02 µM): 1.05 | relative viability (201T; first compound 0.2 µM): 0.927 | relative viability (201T; first compound 0.6325 µM): 0.91 | relative viability (201T; first compound 2 µM): 0.809 | relative viability (NCI-H2347; first compound 0.02 µM): 0.916 | relative viability (NCI-H2347; first compound 0.2 µM): 0.902 | relative viability (NCI-H2347; first compound 0.6325 µM): 1.13 | relative viability (NCI-H2347; first compound 2 µM): 0.936 | relative viability (NCI-H1437; first compound 0.02 µM): 1.04 | relative viability (NCI-H1437; first compound 0.2 µM): 0.985 | relative viability (NCI-H1437; first compound 0.6325 µM): 0.981 | relative viability (NCI-H1437; first compound 2 µM): 1.09 | relative viability (NCI-H2023; first compound 0.02 µM): 0.771 | relative viability (NCI-H2023; first compound 0.2 µM): 0.588 | relative viability (NCI-H2023; first compound 0.6325 µM): 0.542 | relative viability (NCI-H2023; first compound 2 µM): 0.366 | relative viability (LC-2-ad; first compound 0.02 µM): 0.971 | relative viability (LC-2-ad; first compound 0.6325 µM): 0.689 | relative viability (LC-2-ad; first compound 2 µM): 0.541 | relative viability (SK-MES-1; first compound 0.02 µM): 0.934 | relative viability (SK-MES-1; first compound 0.2 µM): 0.903 | relative viability (SK-MES-1; first compound 0.6325 µM): 0.87 | relative viability (SK-MES-1; first compound 2 µM): 0.471

CN1CCN(CCOc2cc(OC3CCOCC3)c3c(Nc4c(Cl)ccc5c4OCO5)ncnc3c2)CC1 [Saracatinib] + Cc1nc(NC(=O)N2CCC[C@H]2C(N)=O)sc1-c1ccnc(C(C)(C)C(F)(F)F)c1 [Alpelisib] (partner 2 µM)
relative viability (NCI-H1793; first compound 0.02 µM): 0.722 | relative viability (NCI-H1793; first compound 0.2 µM): 0.75 | relative viability (NCI-H1793; first compound 0.6325 µM): 0.793 | relative viability (NCI-H1793; first compound 2 µM): 0.74 | relative viability (NCI-H1395; first compound 0.02 µM): 1.6 | relative viability (NCI-H1395; first compound 0.2 µM): 1.06 | relative viability (NCI-H1395; first compound 0.6325 µM): 0.956 | relative viability (NCI-H1395; first compound 2 µM): 0.851 | relative viability (NCI-H1755; first compound 0.02 µM): 0.928 | relative viability (NCI-H1755; first compound 0.2 µM): 0.709 | relative viability (NCI-H1755; first compound 0.6325 µM): 0.864 | relative viability (NCI-H1755; first compound 2 µM): 0.712 | relative viability (COR-L23; first compound 0.02 µM): 0.755 | relative viability (COR-L23; first compound 0.2 µM): 0.621 | relative viability (COR-L23; first compound 0.6325 µM): 0.591 | relative viability (COR-L23; first compound 2 µM): 0.603 | relative viability (COR-L 105; first compound 0.02 µM): 0.91 | relative viability (COR-L 105; first compound 0.2 µM): 0.96 | relative viability (COR-L 105; first compound 0.6325 µM): 0.7 | relative viability (COR-L 105; first compound 2 µM): 0.416 | relative viability (NCI-H650; first compound 0.02 µM): 1.14 | relative viability (NCI-H650; first compound 0.2 µM): 0.814 | relative viability (NCI-H650; first compound 0.6325 µM): 1.21 | relative viability (NCI-H650; first compound 2 µM): 1.13 | relative viability (HCC-15; first compound 0.02 µM): 0.889 | relative viability (HCC-15; first compound 0.2 µM): 0.641 | relative viability (HCC-15; first compound 0.6325 µM): 0.808 | relative viability (HCC-15; first compound 2 µM): 0.759 | relative viability (NCI-H2009; first compound 0.02 µM): 1.16 | relative viability (NCI-H2009; first compound 0.2 µM): 1.14 | relative viability (NCI-H2009; first compound 0.6325 µM): 1.01 | relative viability (NCI-H2009; first compound 2 µM): 0.961 | relative viability (HCC-366; first compound 0.02 µM): 0.429 | relative viability (HCC-366; first compound 0.6325 µM): 0.272 | relative viability (HCC-366; first compound 2 µM): 0.152 | relative viability (NCI-H1792; first compound 0.02 µM): 0.706 | relative viability (NCI-H1792; first compound 0.2 µM): 0.492 | relative viability (NCI-H1792; first compound 0.6325 µM): 0.929 | relative viability (NCI-H1792; first compound 2 µM): 0.608 | relative viability (PC-14; first compound 0.02 µM): 0.996 | relative viability (PC-14; first compound 0.2 µM): 0.681 | relative viability (PC-14; first compound 0.6325 µM): 0.46 | relative viability (PC-14; first compound 2 µM): 0.172 | relative viability (NCI-H23; first compound 0.02 µM): 0.616 | relative viability (NCI-H23; first compound 0.6325 µM): 0.752 | relative viability (NCI-H23; first compound 2 µM): 0.526 | relative viability (NCI-H1915; first compound 0.02 µM): 1.04 | relative viability (NCI-H1915; first compound 0.2 µM): 0.552 | relative viability (NCI-H1915; first compound 0.6325 µM): 1.07 | relative viability (NCI-H1915; first compound 2 µM): 1.01 | relative viability (NCI-H358; first compound 0.02 µM): 0.839 | relative viability (NCI-H358; first compound 0.2 µM): 0.881 | relative viability (NCI-H358; first compound 0.6325 µM): 0.514 | relative viability (NCI-H358; first compound 2 µM): 0.448 | relative viability (EMC-BAC-2; first compound 0.02 µM): 0.778 | relative viability (EMC-BAC-2; first compound 0.2 µM): 0.657 | relative viability (EMC-BAC-2; first compound 0.6325 µM): 0.697 | relative viability (EMC-BAC-2; first compound 2 µM): 0.578 | relative viability (201T; first compound 0.02 µM): 1.09 | relative viability (201T; first compound 0.2 µM): 0.865 | relative viability (201T; first compound 0.6325 µM): 0.856 | relative viability (201T; first compound 2 µM): 0.772 | relative viability (NCI-H2347; first compound 0.02 µM): 1.03 | relative viability (NCI-H2347; first compound 0.2 µM): 0.835 | relative viability (NCI-H2347; first compound 0.6325 µM): 1.12 | relative viability (NCI-H2347; first compound 2 µM): 0.902 | relative viability (NCI-H1437; first compound 0.02 µM): 0.987 | relative viability (NCI-H1437; first compound 0.2 µM): 0.894 | relative viability (NCI-H1437; first compound 0.6325 µM): 0.845 | relative viability (NCI-H1437; first compound 2 µM): 0.895 | relative viability (NCI-H2023; first compound 0.02 µM): 0.62 | relative viability (NCI-H2023; first compound 0.2 µM): 0.409 | relative viability (NCI-H2023; first compound 0.6325 µM): 0.485 | relative viability (NCI-H2023; first compound 2 µM): 0.364 | relative viability (LC-2-ad; first compound 0.02 µM): 0.903 | relative viability (LC-2-ad; first compound 0.6325 µM): 0.882 | relative viability (LC-2-ad; first compound 2 µM): 0.691 | relative viability (SK-MES-1; first compound 0.02 µM): 0.713 | relative viability (SK-MES-1; first compound 0.2 µM): 0.77 | relative viability (SK-MES-1; first compound 0.6325 µM): 0.76 | relative viability (SK-MES-1; first compound 2 µM): 0.644
